Measurements as given in US12583851B2, “Heteroaryl-substituted pyrazine derivatives as pesticides” (Elanco Animal Health GmbH, priority 2019, dated 2026).

Experiments:
Format in all cases: in vivo
[1] = system: adult unfed cat fleas (Ctenocephalides felis); assay: Ctenocephalides felis oral test; details: 48 h, 100 ppm in citrated cattle blood, after 2 days
Protocol: Ctenocephalides felis—Oral Test
(§1) Solvent: dimethyl sulfoxide
To produce a suitable preparation of active compound, 10 mg of active compound are dissolved in 0.5 mL solvent, and the concentrate is diluted with citrated cattle blood to the desired concentration.
Approximately 20 adult unfed cat fleas (Ctenocephalides felis) are placed in a flea chamber whose top and bottom is covered with gauze. A chamber whose bottom is sealed with parafilm, is filled with the blood-compound solution and placed on top of the flea chamber, so that the fleas can suck the blood. The blood chamber is heated to 37° C. whereas the flea chamber is kept at room temperature.
After 2 days mortality in % is determined. 100% means all the fleas have been killed; 0% means none of the fleas have been killed.

[2] = system: Rhipicephalus (Boophilus) microplus larvae (strain Parkhurst, resistant against synthetic pyrethroids); assay: Rhipicephalus (Boophilus) microplus in-vitro contact test, larval cattle tick; details: after 48 hours, read-out: efficacy (larvae dead or moribund); for pest or weed control at 1 µg/cm2, 100 g/ha: 1 μg/cm^2 (=100 g/ha); for pest or weed control at 5 µg/cm2, 500 g/ha: 5 μg/cm^2 (=500 g/ha)
Outline: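 Pyrethroid-resistant larvae (strain Parkhurst), 20–50 per tube, exposed by contact to a dried acetone film of compound (5 μg/cm² at 900 ppm) for 48 h at 27 °C and 85% humidity. Percent dead or moribund larvae scored from negative geotactic behaviour.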

[3] = system: larvae of the banded cucumber beetle (Diabrotica balteata); assay: Diabrotica balteata spray test; details: 168 h, after 7 days, read-out: efficacy (seedling growth); for pest or weed control at 32 µg/disc, 100 g/ha: 100 g/ha (=32 μg/well); for pest or weed control at 6.4 µg/disc, 20 g/ha: 20 g/ha (=6.4 μg/well)
Outline: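 Efficacy was read 7 days after infesting each unit with 10–20 banded cucumber beetle larvae, as % of seedlings growing like untreated, uninfested controls. Before infestation, wheat seeds germinated 1 day on agar (5 per well) were sprayed with the active ingredient. The active was formulated in acetone/DMF and diluted in water containing emulsifier.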

[4] = system: fall armyworm larvae (Spodoptera frugiperda); assay: Spodoptera frugiperda spray test; details: 168 h, maize leaf sections, after 7 days
Outline: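 Percent larval kill read at day 7, from 0% (no caterpillars dead) to 100% (all dead). Larvae were placed on dried Zea mays leaf discs previously sprayed with test preparations made from an acetone/DMF solution diluted in 1000 ppm emulsifier-containing water.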

[5] = system: adult engorged female ticks (Rhipicephalus microplus); assay: Rhipicephalus (Boophilus) microplus injection test; details: 168 h, 4 μg/animal, egg deposition after 7 days, read-out: efficacy (infertile eggs)
Protocol: Rhipicephalus (Boophilus) microplus—Injection Test
as §1
To produce a suitable preparation of active compound, 10 mg of active compound are dissolved in 0.5 mL solvent, and the concentrate is diluted with solvent to the desired concentration.
Five adult engorged female ticks (Rhipicephalus microplus) are injected with 1 μL compound solution into the abdomen. The ticks are transferred into replica plates and incubated in a climate chamber.
After 7 days egg deposition of fertile eggs is monitored. Eggs where fertility is not visible are stored in a climate chamber till hatching after about 42 days. An efficacy of 100% means all eggs are infertile; 0% means all eggs are fertile.

[6] = system: adult cat fleas (Ctenocephalides felis); assay: Ctenocephalides felis in-vitro contact test, adult cat flea; details: after 48 hours, read-out: efficacy (fleas dead or moribund); for pest or weed control at 1 µg/cm2, 100 g/ha: 1 μg/cm^2 (=100 g/ha); for pest or weed control at 5 µg/cm2, 500 g/ha: 5 μg/cm^2 (=500 g/ha)
Protocol: Ctenocephalides felis—In-Vitro Contact Tests Adult Cat Flea
(§2) 9 mg compound is solved in 1 ml acetone and diluted with acetone to the desired concentration. 250 μL of the test solution is filled in 25 mL glass test tubes and homogeneously distributed on the inner walls by rotation and tilting on a shaking device (2 h at 30 rpm). With a compound concentration of 900 ppm, an inner surface of 44.7 cm^2 and a homogeneous distribution, a dose of 5 μg/cm^2 is achieved.
(§3) After the solvent has evaporated, each test tube is filled with 5-10 adult cat fleas (Ctenocephalides felis), closed with a perforated lid and incubated in a lying position at room temperature and relative humidity. After 48 hours efficacy is determined. The fleas are patted on the ground of the tubes and are incubated on a heating plate at 45-50° C. for at most 5 minutes Immotile or uncoordinated moving fleas, which are not able to escape the heat by climbing upwards, are marked as dead or moribund.
An efficacy of 100% means all fleas are dead or moribund; 0% means no fleas are dead or moribund.

[7] = system: adult brown dog ticks (Rhipicephalus sanguineus); assay: Rhipicephalus sanguineus in-vitro contact test, adult brown dog ticks; details: 48 h, 5 μg/cm^2 (=500 g/ha), after 48 hours, read-out: efficacy (ticks dead or moribund)
Protocol: Rhipicephalus sanguineus—In-Vitro Contact Tests with Adult Brown Dog Ticks
as §2, with “mL” for “ml”, “[…]” for “250 μL”
as §3, with “brown dog ticks (Rhipicephalus sanguineus),” for “cat fleas (Ctenocephalides felis),”, “ticks” for “fleas”, “ticks,” for “fleas,”
An efficacy of 100% means all ticks are dead or moribund; 0% means no ticks are dead or moribund.

## CC(NC(=O)c1cc(Cl)cc(C(F)(F)F)c1)c1nccnc1-c1ccccn1 (racemic) [Example I-1, (rac)-3-Chloro-N-{1-[3-(pyridin-2-yl)pyrazin-2-yl]ethyl}-5-(trifluoromethyl)benzamide]
[1]
  mortality at 100 ppm: 90%
[2]
  pest or weed control at 1 µg/cm2, 100 g/ha: 100%
[3]
  pest or weed control at 32 µg/disc, 100 g/ha: 100%
[4]
  mortality at 100 g/ha: 100%

## CC(NC(=O)c1cc(Cl)cc(C(F)(F)F)c1)c1nccnc1-c1nccs1 (racemic) [Example I-3, (rac)-3-Chloro-N-(1-(3-(thiazol-2-yl)pyrazin-2-yl)ethyl)-5-(trifluoromethyl)benzamide]
[1]
  mortality at 100 ppm: 90%
[5]
  pest or weed control at 0.004 mg: 100%
[3]
  pest or weed control at 6.4 µg/disc, 20 g/ha: 80%
  pest or weed control at 32 µg/disc, 100 g/ha: 100%

## CC(NC(=O)c1cc(C(F)(F)F)cc(C(F)(F)F)c1)c1nccnc1-c1nccs1 (racemic) [Example I-5, (rac)-N-(1-(3-(Thiazol-2-yl)pyrazin-2-yl)ethyl)-3,5-bis(trifluoromethyl)benzamide]
[1]
  mortality at 100 ppm: 90%
[2]
  pest or weed control at 1 µg/cm2, 100 g/ha: 100%
  pest or weed control at 5 µg/cm2, 500 g/ha: 100%
[5]
  pest or weed control at 0.004 mg: 80%
[3]
  pest or weed control at 32 µg/disc, 100 g/ha: 80%

## CC(NC(=O)c1cncc(C(C)(C)C)c1)c1nccnc1-c1ncccn1 (racemic) [Example I-11, (rac)-5-(tert-Butyl)-N-(1-(3-(pyrimidin-2-yl)pyrazin-2-yl)ethyl)nicotinamide]
[1]
  mortality at 100 ppm: 90%
[2]
  pest or weed control at 5 µg/cm2, 500 g/ha: 100%

## CC(NC(=O)c1cc(Br)cc(OC(F)(F)F)c1)c1nccnc1-c1nccs1 (racemic) [Example I-53, (rac)-3-Bromo-N-{1-[3-(1,3-thiazol-2-yl)pyrazin-2-yl]ethyl}-5-(trifluoromethoxy)benzamide]
[5]
  pest or weed control at 0.004 mg: 80%
[3]
  pest or weed control at 6.4 µg/disc, 20 g/ha: 80%
  pest or weed control at 32 µg/disc, 100 g/ha: 100%

## CC(NC(=O)c1cc(C#N)cc(C(F)(F)F)c1)c1nccnc1-c1nccs1 (racemic) [Example I-56, (rac)-3-Cyano-N-{1-[3-(1,3-thiazol-2-yl)pyrazin-2-yl]ethyl)-5-(trifluoromethyl)benzamide]
[5]
  pest or weed control at 0.004 mg: 100%
[3]
  pest or weed control at 6.4 µg/disc, 20 g/ha: 100%
  pest or weed control at 32 µg/disc, 100 g/ha: 100%
[4]
  mortality at 100 g/ha: 100%

## CC(NC(=O)c1cc(C(F)(F)F)cc(C(F)(F)F)c1)c1nccnc1-c1ncc(C(=O)N2CCCCC2)s1 (racemic) [Example I-64, (rac)-N-[1-{3-[5-(Piperidine-1-carbonyl)-1,3-thiazol-2-yl]pyrazin-2-yl}ethyl]-3,5-bis(trifluoromethyl)benzamide]
[2]
  pest or weed control at 1 µg/cm2, 100 g/ha: 100%
  pest or weed control at 5 µg/cm2, 500 g/ha: 100%
[6]
  pest or weed control at 1 µg/cm2, 100 g/ha: 100%
  pest or weed control at 5 µg/cm2, 500 g/ha: 100%
[5]
  pest or weed control at 0.004 mg: 100%
[7]
  pest or weed control at 5 µg/cm2, 500 g/ha: 100%

## CC(NC(=O)c1cc(C(F)(F)F)cc(C(F)(F)F)c1)c1nccnc1-c1ncc(C(=O)N2C[C@@H](C)O[C@@H](C)C2)s1 (mixture of isomers) [Example I-66, (rac)-N-[1-(3-{5-[(cis)-2,6-Dimethylmorpholine-4-carbonyl]-1,3-thiazol-2-yl}pyrazin-2-yl)ethyl]-3,5-bis(trifluoromethyl)benzamide]
[2]
  pest or weed control at 1 µg/cm2, 100 g/ha: 100%
  pest or weed control at 5 µg/cm2, 500 g/ha: 100%
[6]
  pest or weed control at 1 µg/cm2, 100 g/ha: 100%
  pest or weed control at 5 µg/cm2, 500 g/ha: 100%
[5]
  pest or weed control at 0.004 mg: 80%
[3]
  pest or weed control at 6.4 µg/disc, 20 g/ha: 100%
  pest or weed control at 32 µg/disc, 100 g/ha: 100%
[4]
  mortality at 100 g/ha: 100%
[7]
  pest or weed control at 5 µg/cm2, 500 g/ha: 80%

## CC(NC(=O)c1cc(Cl)cc(S(C)(=O)=O)c1)c1nccnc1-n1cc(C#N)cn1 (racemic) [Example I-103, (rac)-3-Chloro-N-{1-[3-(4-cyano-1H-pyrazol-1-yl)pyrazin-2-yl]ethyl}-5-(methanesulfonyl)benzamide]
[2]
  pest or weed control at 1 µg/cm2, 100 g/ha: 90%
  pest or weed control at 5 µg/cm2, 500 g/ha: 90%
[6]
  pest or weed control at 5 µg/cm2, 500 g/ha: 80%
[3]
  pest or weed control at 6.4 µg/disc, 20 g/ha: 100%
  pest or weed control at 32 µg/disc, 100 g/ha: 100%
[4]
  mortality at 100 g/ha: 100%
[7]
  pest or weed control at 5 µg/cm2, 500 g/ha: 80%

## CC(NC(=O)c1cc(Cl)cc(OC(F)(F)F)c1)c1nccnc1-c1ccccn1 (stereo not drawn) [Example I-12]
[1]
  mortality at 100 ppm: 100%
[3]
  pest or weed control at 6.4 µg/disc, 20 g/ha: 100%
  pest or weed control at 32 µg/disc, 100 g/ha: 100%
[4]
  mortality at 100 g/ha: 83%

## CC(NC(=O)c1cc(C(F)(F)F)cc(C(F)(F)F)c1)c1nccnc1-c1ccccn1 (stereo not drawn) [Example I-13]
[1]
  mortality at 100 ppm: 90%
[2]
  pest or weed control at 1 µg/cm2, 100 g/ha: 100%
  pest or weed control at 5 µg/cm2, 500 g/ha: 100%
[5]
  pest or weed control at 0.004 mg: 80%
[3]
  pest or weed control at 6.4 µg/disc, 20 g/ha: 100%
  pest or weed control at 32 µg/disc, 100 g/ha: 80%
[4]
  mortality at 100 g/ha: 100%

## CC(NC(=O)c1cc(Cl)cc(Br)c1)c1nccnc1-c1ccccn1 (stereo not drawn) [Example I-14]
[1]
  mortality at 100 ppm: 100%
[2]
  pest or weed control at 1 µg/cm2, 100 g/ha: 90%
  pest or weed control at 5 µg/cm2, 500 g/ha: 80%
[5]
  pest or weed control at 0.004 mg: 80%
[3]
  pest or weed control at 6.4 µg/disc, 20 g/ha: 80%
  pest or weed control at 32 µg/disc, 100 g/ha: 80%

## CC(NC(=O)c1cc(C#N)cc(C(F)(F)F)c1)c1nccnc1-c1ccccn1 (stereo not drawn) [Example I-15]
[1]
  mortality at 100 ppm: 100%
[2]
  pest or weed control at 1 µg/cm2, 100 g/ha: 80%
  pest or weed control at 5 µg/cm2, 500 g/ha: 80%
[5]
  pest or weed control at 0.004 mg: 80%
[3]
  pest or weed control at 32 µg/disc, 100 g/ha: 100%

## CC(NC(=O)c1cc(Br)cc(C#N)c1)c1nccnc1-c1ccccn1 (stereo not drawn) [Example I-16]
[1]
  mortality at 100 ppm: 100%
[3]
  pest or weed control at 32 µg/disc, 100 g/ha: 100%
[7]
  pest or weed control at 5 µg/cm2, 500 g/ha: 80%

## CC(NC(=O)c1cc(Cl)cc(OC(F)(F)F)c1)c1nccnc1-c1ccc(Cl)cn1 (stereo not drawn) [Example I-21]
[5]
  pest or weed control at 0.004 mg: 80%
[3]
  pest or weed control at 6.4 µg/disc, 20 g/ha: 100%
  pest or weed control at 32 µg/disc, 100 g/ha: 100%
[4]
  mortality at 100 g/ha: 100%

## CC(NC(=O)c1cc(Cl)cc(C#N)c1)c1nccnc1-c1ccc(Cl)cn1 (stereo not drawn) [Example I-23]
[1]
  mortality at 100 ppm: 100%
[5]
  pest or weed control at 0.004 mg: 100%
[4]
  mortality at 100 g/ha: 100%

## CC(NC(=O)c1cc(C#N)cc(C(F)(F)F)c1)c1nccnc1-c1ccc(Cl)cn1 (stereo not drawn) [Example I-25]
[1]
  mortality at 100 ppm: 90%
[5]
  pest or weed control at 0.004 mg: 80%
[3]
  pest or weed control at 6.4 µg/disc, 20 g/ha: 100%
  pest or weed control at 32 µg/disc, 100 g/ha: 100%
[4]
  mortality at 100 g/ha: 100%
